# ± gives the standard deviation of the averaged measurements.
# Key:
# [1] = tested on: HSC1 (primary human Schwann cells); assay: drug sensitivity score (DSS, CellTox-Green cytotoxicity, 72 h) (DSS (dimensionless)); higher = more cytotoxic; extreme values may be limits of the assay
# Summary of the method: (§1)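 For 72 h at 37 °C, MPNST cell lines and primary human Schwann cells were exposed in 384-well plates to five 10-fold compound dilutions. CellTox-Green, added before seeding at a final 1:1000 dilution, gave fluorescence from DNA released by disrupted cells. Signals were scaled to vehicle and positive-control wells, cultures failing plate quality control were left out, and four-parameter logistic fits were applied. Relative IC50 and drug sensitivity score were derived from the fits, with IC50 censored at the top concentration.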
# HS-PSS [2] = assay: as above
# Summary of the method: as §1
# STS26T [3] = assay: as above
# Summary of the method: as §1
# S1507-2 [4] = assay: as above
# Summary of the method: as §1
# ST8814 [5] = assay: as above
# Summary of the method: as §1
# [6] = tested on: HSC2 (primary human Schwann cells); assay: as above
# Summary of the method: as §1
# [7] = tested on: HSC1 (primary human Schwann cells); assay: % inhibition of CellTiter-Glo viability at highest tested concentration (72 h), relative to DMSO and benzethonium chloride controls; higher = more inhibition
# Summary of the method: (§2)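 After seeding 750–1000 cells per well of MPNST cell lines or primary human Schwann cells into 384-well plates preprinted with each compound at five concentrations in 10-fold steps, plates were kept 72 h at 37 °C, 5% CO2. Viability was read as CellTiter-Glo ATP luminescence relative to vehicle and positive-control wells, with duplicates averaged where present. The data were fitted with four-parameter logistic models. Drug sensitivity score and relative IC50, censored at the top concentration, derive from the fits, and percent inhibition refers to the top concentration.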
# HS-PSS [8] = assay: as above
# Summary of the method: as §2
# YST-1 [9] = assay: as above
# Summary of the method: as §2
# HS-Sch-2 [10] = assay: as above
# Summary of the method: as §2
# S462 [11] = assay: as above
# Summary of the method: as §2
# STS26T [12] = assay: as above
# Summary of the method: as §2
# S1507-2 [13] = assay: as above
# Summary of the method: as §2
# ST8814 [14] = assay: as above
# Summary of the method: as §2
# [15] = tested on: HSC2 (primary human Schwann cells); assay: as above
# Summary of the method: as §2
# [16] = tested on: HSC1 (primary human Schwann cells); assay: drug sensitivity score (DSS, CellTiter-Glo viability, 72 h) (DSS (dimensionless)); higher = more sensitive; extreme values may be limits of the assay
# Summary of the method: as §2
# HS-PSS [17] = assay: as above
# Summary of the method: as §2
# YST-1 [18] = assay: as above
# Summary of the method: as §2
# HS-Sch-2 [19] = assay: as above
# Summary of the method: as §2
# S462 [20] = assay: as above
# Summary of the method: as §2
# STS26T [21] = assay: as above
# Summary of the method: as §2
# S1507-2 [22] = assay: as above
# Summary of the method: as §2
# ST8814 [23] = assay: as above
# Summary of the method: as §2
# [24] = tested on: HSC2 (primary human Schwann cells); assay: as above
# Summary of the method: as §2
SMILES,drug sensitivity score [1],drug sensitivity score (HS-PSS [2]),drug sensitivity score (STS26T [3]),drug sensitivity score (S1507-2 [4]),drug sensitivity score (ST8814 [5]),drug sensitivity score [6],% inhibition [7] [%],% inhibition (HS-PSS [8]) [%],% inhibition (YST-1 [9]) [%],% inhibition (HS-Sch-2 [10]) [%],% inhibition (S462 [11]) [%],% inhibition (STS26T [12]) [%],% inhibition (S1507-2 [13]) [%],% inhibition (ST8814 [14]) [%],% inhibition [15] [%],drug sensitivity score [16],drug sensitivity score (HS-PSS [17]),drug sensitivity score (YST-1 [18]),drug sensitivity score (HS-Sch-2 [19]),drug sensitivity score (S462 [20]),drug sensitivity score (STS26T [21]),drug sensitivity score (S1507-2 [22]),drug sensitivity score (ST8814 [23]),drug sensitivity score [24]
CS(=O)(=O)OCCCCOS(C)(=O)=O [Busulfan] (max concentration tested 100000 nM),0,0,0,0,0,0,8.68,0.44,22.8,17.2,-16.5 ± 19,3.36,-7.23 ± 18,0.917,-3.16,0,0,2.32,0.72,0,0,0,0,0
Cc1[nH]c2ccccc2c1CCNCc1ccc(/C=C/C(=O)NO)cc1 [Panobinostat] (max concentration tested 1000 nM),10.5,9.17,11.1,20.6 ± 0.84,16.1,10.7,101,93.9,99.9,101,103.7 ± 0.37,98,104.5 ± 0.79,101,101,19.5,14.1,23.7,19.1,22.7 ± 0.67,16.8,24.1 ± 0.61,22,16.7
CN(C)c1nc(N(C)C)nc(N(C)C)n1 [Altretamine] (max concentration tested 10000 nM),0,0,0,0.0018 ± 0.0026,0,0,6.31,-1.71,9.76,-1.37,-12.7 ± 1.5,5.66,-7.42 ± 0.53,-6.95,-0.459,0,0,0,0,0,0,0,0,0
N#Cc1ccc(C(c2ccc(C#N)cc2)n2cncn2)cc1 [Letrozole] (max concentration tested 10000 nM),0,0,0,0,0,0,1.16,10.6,7.25,14.7,-4.84 ± 2.2,3.15,-4.25 ± 4.2,-5.31,3.35,0,0,0,0.34,0,0,0,0,0
NC(=O)NO [Hydroxyurea] (max concentration tested 100000 nM),0,0,0,0,0,0,16.3,9.89,8.97,20.8,-3.38 ± 4.4,3.66,5.18 ± 7.5,3.1,9.58,0.337,0,0,0.56,0,0,0,0,0
CC1(COc2ccc3c(c2)ncn3-c2ccc3cccc(N4CCC(N)CC4)c3n2)COC1 [Crenolanib] (max concentration tested 10000 nM),3.33,4.69,5.47,10.4 ± 4.5,7.03,3.85,84.7,101,101,101,95.09 ± 0.94,95.3,95.6 ± 0.82,95,85.3,5.48,4.89,5.36,10.5,5.16 ± 0.26,6.09,7 ± 2.5,8.29,5.95
COc1ccc(-c2ccc3c(N4CCOC[C@@H]4C)nc(N4CCOC[C@@H]4C)nc3n2)cc1CO [AZD8055] (max concentration tested 10000 nM),0,0.77,0,0,0.371,0,89.3,70.7,78.6,75.8,74.8 ± 1.4,82,85.4 ± 0.61,84.1,89.9,26.2,17,25.1,17.9,22.3 ± 1.8,21,22.5 ± 1.3,18,27.2

# From the supplement of paper PMC5579334
